“And” between values parts separate entries of the source, which are not always exact repeats. Equal entries are not always repeated.
Columns and labels:
Format in all cases: physicochemical
[1] = Maximum absorption wavelength (λmax) after color development, spectrophotometer MCPD3000; conditions: for Maximum absorption wavelength (nm): photochromic laminate by coating method, 40 µm photochromic layer on thiourethane lens, 0.25 mmol compound per 100 g monomers; for Maximum absorption wavelength: photochromic laminate prepared by coating method, after color development
Summary of the method: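 Read-out: absorbance at λmax, multichannel photodetector spectrophotometer. Colour density = ε(240) − ε(0), 240 s light, 23°C. τ1/2 = time for ε(240) − ε(0) to halve after light off. Residual rate compares density before and after 90 h xenon weathering.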

[2] = Residual rate (A90/A0×100) after 90 h accelerated deterioration in xenon weather meter X25, color developing durability; conditions: for Residual rate (%): photochromic laminate by coating method, xenon weather meter 90 hours; for Residual rate: photochromic laminate prepared by coating method, after 90 h accelerated deterioration
Summary of the method: (§1)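 Photochromic plastic lens samples were irradiated for 240 s at 23°C, and colour density was taken as the absorbance change at the absorption maximum. Fading half-life was timed from the end of irradiation until that absorbance change fell by half. Durability compared colour density before and after xenon-lamp ageing.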

[3] = 23°C color optical density (A23): absorbancy difference ε(240)-ε(0) after 240 s light irradiation at 23°C; conditions: photochromic laminate by coating method, 240 s irradiation, at the maximum absorption wavelength
Summary of the method: as §1

[4] = 23°C color fading half-life τ1/2 after 240 s light irradiation
Experimental: • [1] Maximum Absorption Wavelength (λmax): The maximum absorption wavelength after color development, measured using a spectrophotometer (instantaneous multichannel photodetector MCPD3000) manufactured by Otsuka Electronics Co., Ltd. was used as an indicator for the color tone during the color development. • [2] 23°C Color Optical Density (A23): A difference between an absorbancy measured after light irradiation at 23°C for 240 seconds {ε(240)} and an absorbancy without light irradiation ε(0) at the maximum absorption wavelength was used as an indicator for the color optical density. […] 35°C Color Optical Density (A35): A difference between an absorbancy measured after light irradiation at 35°C for 240 seconds {ε(240)} and an absorbancy without light irradiation ε(0) at the first and second absorption wavelengths was used as an indicator for the color optical density. […] 23°C color fading half-life [τ1/2 (sec.)]: A time required for the absorbancy of the sample at the maximum absorption wavelength to decrease to 1/2 of {ε(240)-ε(0)} when the light irradiation is terminated after the light irradiation at 23°C for 240 seconds, was used as an indicator for the color fading speed. The shorter this time, the higher the color fading speed. • [6] Residual rate (A90/A0×100): The obtained photochromic plastic lens was subjected to accelerated deterioration using a xenon weather meter X25 manufactured by Suga Test Instruments Co., Ltd. for 90 hours. Subsequently, the color optical density was evaluated before and after the test, then a color optical density before the test (A0) and a color optical density after the test (A90) were measured, and a ratio (A90/A0) was defined as a residual rate. The residual rate was used as an indicator for a color developing durability. The higher the residual rate, the higher the color developing durability.

[5] = 35°C color optical density (A35): absorbancy difference ε(240)-ε(0) after 240 s light irradiation at 35°C; conditions: photochromic laminate by coating method, 240 s irradiation
Summary of the method: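 Color optical density at 35°C (A35) came from light exposure of the sample at 35°C lasting 240 seconds. At the first and second absorption wavelengths, the absorbancy before irradiation, ε(0), was subtracted from the absorbancy measured after irradiation, ε(240). This difference was taken as the measure of color optical density.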

[6] = High-temperature color development rate (A35/A23×100), temperature dependency; conditions: for A35/A23 *100 (%): photochromic laminate by coating method; for A35/A23 *100: photochromic laminate prepared by coating method
Summary of the method: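 The sample was irradiated with light for 240 seconds at 23°C and separately at 35°C. The gain in absorbance over the unirradiated state, ε(240)−ε(0), gave the color optical densities A23 and A35. A35 divided by A23, multiplied by 100, expressed how well color development holds up at the higher temperature.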

Maximum absorption wavelength (nm) [1] | Residual rate (%) [2] | A23 (-) [3] | 23°C color fading half-life [4] | A35 (-) [5] | A35/A23 *100 (%) [6] | SMILES | other results
442 nm | 73% | 1.19 - | 1.5 min | 0.79 - | 66% | COCCCCC1(CCCCOC)c2ccccc2-c2c1c1c(c3cc(C)c(N(C)c4ccccc4)cc23)OC(c2ccc(C)cc2)(c2ccc(OC)cc2)C=C1 (stereo not shown) [Example 5 Formula (43)] | –
– | 83% | – | 0.667 min | – | 61% | CCCOc1ccc(C2(c3ccc(OC)cc3)C=Cc3c4c(c5cc(N(c6ccc(C(F)(F)F)cc6)c6ccc(C(F)(F)F)cc6)c(OC)cc5c3O2)-c2ccccc2C4(CCCCOC)CCCCOC)cc1 (stereo not shown) [Example 11 Formula (63)] | Maximum absorption wavelength (nm) ([1]; at 462 nm absorption maximum): 462 nm; Maximum absorption wavelength (nm) ([1]; at 576 nm absorption maximum): 576 nm; A23 (-) ([3]; at 462 nm absorption maximum): 0.75 -; A23 (-) ([3]; at 576 nm absorption maximum): 0.66 -; A35 (-) ([5]; at 462 nm absorption maximum): 0.46 -; A35 (-) ([5]; at 576 nm absorption maximum): 0.41 -
498 nm | 80% | 1.25 - | 1.2 min | 0.84 - | 67% | CCCCN(c1ccc(F)cc1)c1cc2c3c(c4c(c2cc1OC)OC(c1ccc(OC)cc1)(c1ccc(OC)cc1)C=C4)C(CCCCOC)(CCCCOC)c1ccccc1-3 [Example 16 Formula (77)] | –
493 nm | 78% | 1.25 - | 1.63 min | 0.88 - | 70% | CCCC1(CCC)c2cc(C)ccc2-c2c1c1c(c3cc(OC)c(N(C)c4ccccc4)cc23)OC(c2ccc(OC)cc2)(c2ccc(OC)cc2)C=C1 [Example 18 Formula (81)] | –
501 nm | 75% | 0.98 - | 0.633 min | 0.61 - | 62% | CCCCN(c1ccccc1)c1cc2c3c(c4c(c2cc1OC)OC(c1ccc(OC)cc1)(c1ccc(OCCC)cc1)C=C4)C(CC)(CC)c1cc(OC(F)(F)F)ccc1-3 (stereo not shown) [Example 51 Formula (117)] | –
468 nm and 597 nm | 77% | 0.66 - and 0.71 - | 0.783 min | 0.44 - and 0.48 - | 67% and 68% | COCCCC1(CCCOC)c2cc(Sc3c(C)cccc3C)ccc2-c2c1c1c(c3cc(OC)c(N(CCOC)c4ccc(C(F)(F)F)cc4)cc23)OC(c2ccc(OC)cc2)(c2ccc(OC)cc2)C=C1 [Example 57 Formula (132)] | –

Continued, compound first:

SMILES | Maximum absorption wavelength (nm) [1] | Residual rate (%) [2] | A23 (-) [3] | 23°C color fading half-life [4] | A35 (-) [5] | A35/A23 *100 (%) [6] | other results
CCCC1(CCC)c2ccccc2-c2c1c1c(c3cc(OC)c(N(c4ccccc4)c4ccccc4)cc23)OC(c2ccc(OC)cc2)(c2ccc(N3CCOCC3)cc2)C=C1 (stereo not shown) [Example 7 Formula (50)] | – | – | – | 0.733 min | – | 62% | Maximum absorption wavelength (nm) ([1]; at 522 nm absorption maximum): 522 nm; Maximum absorption wavelength (nm) ([1]; at 615 nm absorption maximum): 615 nm; Residual rate (%) ([2]; at 522 nm absorption maximum): 77%; Residual rate (%) ([2]; at 615 nm absorption maximum): 76%; A23 (-) ([3]; at 522 nm absorption maximum): 1.19 -; A23 (-) ([3]; at 615 nm absorption maximum): 1.14 -; A35 (-) ([5]; at 522 nm absorption maximum): 0.74 -; A35 (-) ([5]; at 615 nm absorption maximum): 0.71 -
CCCC1(CCC)c2ccccc2-c2c1c1c(c3cc(OC)c(N(C)c4ccccc4)cc23)OC(c2ccc(OC)cc2)(c2ccc(N(c3ccccc3)c3ccccc3)cc2)C=C1 (stereo not shown) [Example 21 Formula (87)] | 524 nm | 80% | 1.26 - | 1.62 min | 0.87 - | 69% | –
CCCC1(CCC)c2ccccc2-c2c1c1c(c3cc(OC)c(N(c4ccccc4)c4ccccc4)cc23)OC(c2ccc(C)cc2)(c2ccc(N(C)c3ccccc3)cc2)C=C1 (stereo not shown) [Example 22 Formula (89)] | 530 nm | 76% | 1.51 - | 1.25 min | 1.03 - | 68% | –
CCCCN(c1ccc(C(F)(F)F)cc1)c1cc2c3c(c4c(c2cc1OC)OC(c1ccc(C)cc1)(c1ccc(OC)cc1)C=C4)C1(CCCCCCCCCCC1)c1cc(OC)ccc1-3 (stereo not shown) [Example 54 Formula (123)] | 453 nm and 583 nm | 78% | 0.82 - and 1.08 - | 2.92 min | 0.60 - and 0.80 - | 74% | –
CCCOc1ccc(C2(c3ccc(OC)cc3)C=Cc3c4c(c5cc(N6CCc7ccccc76)c(C)cc5c3O2)-c2ccccc2C4(CCC)CCC)cc1 (stereo not shown) [Formula (31A)] | – | – | – | 1.05 min | – | – | Maximum absorption wavelength [1]: 520 nm; Residual rate [2]: 67%; A35/A23 *100 [6]: 65%
CCCCC1(CCCC)c2cc(C(F)(F)F)ccc2-c2c1c1c(c3cc(C)c(N4CCc5ccccc54)cc23)OC(c2ccc(OC)cc2)(c2ccc(OC)c(C)c2)C=C1 (stereo not shown) [Formula (64A)] | – | – | – | 1.1 min | – | – | Maximum absorption wavelength [1]: 523 nm; Residual rate [2]: 64%; A35/A23 *100 [6]: 65%
CCCc1ccc(C2(c3ccc(OC)cc3)C=Cc3c4c(c5cc(N6CCc7ccccc76)c(OC)cc5c3O2)-c2ccc(-c3ccc(C(F)(F)F)cc3)cc2C4(CCOC)CCOC)cc1 (stereo not shown) [Formula (85A)] | – | – | – | 0.933 min | – | – | Maximum absorption wavelength [1]: 530 nm; Residual rate [2]: 65%; A35/A23 *100 [6]: 69%
